Assay results reported in patent publication US20250154127A1, “BICYCLIC HETEROARYL COMPOUNDS AND USES THEREOF” (ETERN BIOPHARMA (SHANGHAI) CO., LTD., priority 2022, published 2025).

What was measured:
[1] = test system: MSTO-211H cells; test: Proliferation Assay (CellTiter-Glo Luminescent Cell Viability Assay); format: cell-based; settings: Homo sapiens, 96 hours treatment
Summary of the method: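 MSTO-211H cells, 1,500/well in RPMI 1640 with 10% FBS, plated overnight, then treated 96 h with 9-point 3-fold compound series in duplicate (DMSO below 0.5%). Viability by CellTiter-Glo luminescence; inhibition relative to DMSO wells, IC50 by four-parameter fit.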

[2] = target: TEAD1(210-426) binding to YAP(50-100) (Homo sapiens, UniProt P28347); test: TR-FRET Assay for TEAD1(210-426) Binding to YAP(50-100); settings: His-TEAD 10 nM, YAP-Biotin peptide 50 nM
Chain of TEAD1(210-426) binding to YAP(50-100) (P28347 209-426): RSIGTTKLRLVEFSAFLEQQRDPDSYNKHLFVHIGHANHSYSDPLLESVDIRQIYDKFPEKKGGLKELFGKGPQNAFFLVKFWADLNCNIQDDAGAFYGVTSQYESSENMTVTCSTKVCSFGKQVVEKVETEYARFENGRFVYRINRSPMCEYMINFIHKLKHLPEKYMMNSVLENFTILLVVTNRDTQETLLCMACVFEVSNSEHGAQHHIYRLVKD
Summary of the method: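 10 nM His-TEAD1 preincubated 30 min at room temperature with compound (3-fold dilutions, 12 points, 1% DMSO), then 50 nM biotin-YAP peptide added.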

Row | SMILES | IC50 [2] [nM] | IC50 [1] [nM]
1 | CNc1nccc(Cn2ccc(-n3nc(-c4ccc(C(F)(F)F)cc4)c4nccnc43)cc2=O)n1 [Compound 51, 1-((2-(methylamino)pyrimidin-4-yl)methyl)-4-(3-(4-(trifluoromethyl)phenyl)-1H-pyrazolo[3,4-b]pyrazin-1-yl)pyridin-2(1H)-one] | ≤ 100 | ≤ 1000
2 | CN(CCO)c1nccc(Cn2ccc(-c3nn(-c4ccc(C(F)(F)F)cc4)c4ncccc34)cc2=O)n1 [Compound 72] | ≤ 100 | ≤ 1000
3 | O=c1cc(-c2nn(-c3ccc(C(F)(F)F)cc3)c3cccc(F)c23)ccn1Cc1ccnc(OCCO)n1 [Compound 153, 4-(4-fluoro-1-(4-(trifluoromethyl)phenyl)-1H-indazol-3-yl)-1-((2-(2-hydroxyethoxy)pyrimidin-4-yl)methyl)pyridin-2(1H)-one] | ≤ 100 | ≤ 1000
4 | O=c1cc(-n2nc(-c3ccc(C(F)(F)F)cc3)c3ncccc32)ccn1Cc1ccn(CCO)n1 [Compound 45] | ≤ 100 | ≤ 1000
5 | CN(CCO)c1nccc(Cn2ccc(-n3nc(-c4ccc(C(F)(F)F)cc4)c4c(F)cccc43)cc2=O)n1 [Compound 139, 4-(4-fluoro-3-(4-(trifluoromethyl)phenyl)-1H-indazol-1-yl)-1-((2-((2-hydroxyethyl)(methyl)amino)pyrimidin-4-yl)methyl)pyridin-2(1H)-one] | ≤ 100 | ≤ 1000
6 | CNc1ccnc(Cn2ccc(-c3nn(-c4ccc(C(F)(F)F)cc4)c4nccnc34)cc2=O)n1 [Compound 104, 1-((4-(methylamino)pyrimidin-2-yl)methyl)-4-(1-(4-(trifluoromethyl)phenyl)-1H-pyrazolo[3,4-b]pyrazin-3-yl)pyridin-2(1H)-one] | 100 to 1000 | ≤ 1000
7 | CNc1nccc(Cn2ccc(-c3nn(-c4ccc(C5COC5)cc4)c4c(F)cccc34)cc2=O)n1 [Compound 152] | ≤ 100 | ≤ 1000
8 | CNc1ccnc(Cn2ccc(-n3nc(-c4ccc(C(F)(F)F)cc4)c4ncccc43)cc2=O)n1 [Compound 48, 1-((4-(methylamino)pyrimidin-2-yl)methyl)-4-(3-(4-(trifluoromethyl)phenyl)-1H-pyrazolo[4,3-b]pyridin-1-yl)pyridin-2(1H)-one] | ≤ 100 | ≤ 1000
9 | CNc1ccnc(Cn2ccc(-c3nn(-c4ccc(C(F)(F)F)cc4)c4c(F)cccc34)cc2=O)n1 [Compound 129, 4-(7-fluoro-1-(4-(trifluoromethyl)phenyl)-1H-indazol-3-yl)-1-((4-(methylamino)pyrimidin-2-yl)methyl)pyridin-2(1H)-one] | ≤ 100 | ≤ 1000
10 | C[C@@H](c1ccccn1)n1ccc(-c2nn(-c3cccc(C(F)(F)F)c3)c3cccnc23)cc1=O [Compound 6, (S)-1-(1-(pyridin-2-yl)ethyl)-4-(1-(3-(trifluoromethyl)phenyl)-1H-pyrazolo[4,3-b]pyridin-3-yl)pyridin-2(1H)-one] | 100 to 1000 | 1000 to 10000
11 | CNc1ccnc(Cn2ccc(-c3nc(-c4ccc(C(F)(F)F)cc4)n4ccccc34)cc2=O)n1 [Compound 125, 1-((4-(methylamino)pyrimidin-2-yl)methyl)-4-(3-(4-(trifluoromethyl)phenyl)imidazo[1,5-a]pyridin-1-yl)pyridin-2(1H)-one] | ≤ 100 | ≤ 1000
12 | COc1ccnc(Cn2ccc(-c3cn(-c4ccc(C(F)(F)F)cc4)c4ncccc34)cc2=O)n1 [Compound 80, 1-((4-methoxypyrimidin-2-yl)methyl)-4-(1-(4-(trifluoromethyl)phenyl)-1 H-pyrrolo[2,3-b]pyridin-3-yl)pyridin-2(1H)-one] | ≤ 100 | ≤ 1000
13 | CNc1ccnc(Cn2ccc(-n3nc(-c4ccc(C(F)(F)F)cc4)c4nccnc43)cc2=O)n1 [Compound 49, 1-((4-(methylamino)pyrimidin-2-yl)methyl)-4-(3-(4-(trifluoromethyl)phenyl)-1H-pyrazolo[3,4-b]pyrazin-1-yl)pyridin-2(1H)-one] | ≤ 100 | ≤ 1000
14 | CNc1nccc([C@@H](C)n2ccc(-c3nn(-c4ccc(C(F)(F)F)cc4)c4ncccc34)cc2=O)n1 [Compound 130, (R)-1-(1-(2-(methylamino)pyrimidin-4-yl)ethyl)-4-(1-(4-(trifluoromethyl)phenyl)-1H-pyrazolo[3,4-b]pyridin-3-yl)pyridin-2(1H)-one] | 100 to 1000 | ≤ 1000
15 | C[C@@H](c1ccccn1)n1ccc(-c2nn(-c3ccc(C(F)(F)F)cc3)c3cccnc23)cc1=O [Compound 2, (S)-1-(1-(pyridin-2-yl)ethyl)-4-(1-(4-(trifluoromethyl)phenyl)-1H-pyrazolo[4,3-b]pyridin-3-yl)pyridin-2(1H)-one] | ≤ 100 | ≤ 1000
16 | CNc1nccc(Cn2ccc(-c3nn(-c4ccc(OC(F)(F)F)cc4)c4ncccc34)cc2=O)n1 [Compound 59, 1-((2-(methylamino)pyrimidin-4-yl)methyl)-4-(1-(4-(trifluoromethoxy)phenyl)-1H-pyrazolo[3,4-b]pyridin-3-yl) pyridin-2(1H)-one] | ≤ 100 | ≤ 1000
17 | CN(CCO)c1ccnc(Cn2ccc(-c3nn(-c4ccc(C(F)(F)F)cc4)c4nccnc34)cc2=O)n1 [Compound 107, 1-((4-((2-hydroxyethyl)(methyl)amino)pyrimidin-2-yl)methyl)-4-(1-(4-(trifluoromethyl)phenyl)-1H-pyrazolo[3,4-b]pyrazin-3-yl)pyridin-2(1H)-one] | ≤ 100 | ≤ 1000
18 | CNc1ccnc(Cn2ccc(-c3nn(-c4ccc(C(F)(F)F)cc4)c4ccc(F)cc34)cc2=O)n1 [Compound 54, 4-(5-fluoro-1-(4-(trifluoromethyl)phenyl)-1H-indazol-3-yl)-1-((4-(methylamino)pyrimidin-2-yl)methyl)pyridin-2(1H)-one] | ≤ 100 | ≤ 1000

Continued, in another order:

Row | IC50 [2] [nM] | SMILES | IC50 [1] [nM]
19 | ≤ 100 | Cn1nc(Cn2ccc(-c3nn(-c4ccc(C(F)(F)F)cc4)c4ccccc34)cc2=O)ccc1=O [Compound 96, 2-methyl-6-((2-oxo-4-(1-(4-(trifluoromethyl)phenyl)-1H-indazol-3-yl)pyridin-1(2H)-yl)methyl)pyridazin-3(2H)-one] | 1000 to 10000
20 | ≤ 100 | O=c1cc(-c2nn(-c3ccc(C(F)(F)F)cc3)c3ccccc23)ccn1Cc1ccnc(OCCO)n1 [Compound 93, 1-((2-(2-hydroxyethoxy)pyrimidin-4-yl)methyl)-4-(1-(4-(trifluoromethyl)phenyl)-1H-indazol-3-yl)pyridin-2(1H)-one] | ≤ 1000
21 | ≤ 100 | Nc1nccc(Cn2ccc(-c3nn(-c4ccc(C(F)(F)F)cc4)c4ccccc34)cc2=O)n1 [Compound 61, 1-((2-aminopyrimidin-4-yl)methyl)-4-(1-(4-(trifluoromethyl)phenyl)-1H-indazol-3-yl)pyridin-2(1H)-one] | ≤ 1000
22 | ≤ 100 | O=c1cc(-n2nc(-c3ccc(C(F)(F)F)cc3)c3ncccc32)ccn1Cc1cccnc1 [Compound 120, 1-(pyridin-3-ylmethyl)-4-(3-(4-(trifluoromethyl)phenyl)-1H-pyrazolo[4,3-b]pyridin-1-yl)pyridin-2(1H)-one] | ≤ 1000
23 | > 1000 | Cn1cncc1Cn1ccc(-c2nn(-c3ccc(C(F)(F)F)cc3)c3ccccc23)cc1=O [Compound 39, 1-((1-methyl-1H-imidazol-5-yl)methyl)-4-(1-(4-(trifluoromethyl)phenyl)-1H-indazol-3-yl)pyridin-2(1H)-one] | ≤ 1000
24 | 100 to 1000 | Cc1cc(Cn2ccc(-c3nn(-c4ccc(C(F)(F)F)cc4)c4ccccc34)cc2=O)n(C)n1 [Compound 16, 1-((1,3-dimethyl-1H-pyrazol-5-yl)methyl)-4-(1-(4-(trifluoromethyl)phenyl)-1H-indazol-3-yl)pyridin-2(1H)-one] | ≤ 1000
25 | ≤ 100 | O=c1cc(-c2nn(-c3ccc(C(F)(F)F)cc3)c3ccccc23)ccn1Cc1cccnn1 [Compound 62, 1-(pyridazin-3-ylmethyl)-4-(1-(4-(trifluoromethyl)phenyl)-1H-indazol-3-yl)pyridin-2(1H)-one] | ≤ 1000
26 | ≤ 100 | O=c1cc(-c2nn(-c3ccc(C(F)(F)F)cc3)c3ccccc23)ccn1Cc1cccnc1 [Compound 18, 1-(pyridin-3-ylmethyl)-4-(1-(4-(trifluoromethyl)phenyl)-1H-indazol-3-yl)pyridin-2(1H)-one] | ≤ 1000
27 | ≤ 100 | CNc1nccc(Cn2ccc(-c3nn(-c4ccc(C(F)(F)F)cc4)c4ccccc34)cc2=O)c1F [Compound 67, 1-((3-fluoro-2-(methylamino)pyridin-4-yl)methyl)-4-(1-(4-(trifluoromethyl)phenyl)-1H-indazol-3-yl)pyridin-2(1H)-one] | ≤ 1000
28 | ≤ 100 | Nc1ccnc(Cn2ccc(-c3nn(-c4ccc(C(F)(F)F)cc4)c4ccccc34)cc2=O)n1 [Compound 17, 1-((4-aminopyrimidin-2-yl)methyl)-4-(1-(4-(trifluoromethyl)phenyl)-1H-indazol-3-yl)pyridin-2(1H)-one] | ≤ 1000
29 | ≤ 100 | O=c1cc(-c2nn(-c3ccc(C(F)(F)F)cc3)c3ccccc23)ccn1Cc1nccc(N2CC3(COC3)C2)n1 [Compound 87, 1-((4-(2-oxa-6-azaspiro[3.3]heptan-6-yl)pyrimidin-2-yl)methyl)-4-(1-(4-(trifluoromethyl)phenyl)-1H-indazol-3-yl)pyridin-2(1H)-one] | ≤ 1000
30 | ≤ 100 | C[C@@H](c1ccccn1)n1ccc(-c2nn(-c3ccc(C(F)(F)F)cc3)c3ccc(CO)cc23)cc1=O [Compound 24] | ≤ 1000
